Results reported in patent US20230049952A1, “METHODS AND COMPOUNDS FOR RESTORING MUTANT P53 FUNCTION” (PMV Pharmaceuticals, Inc., priority 2020, published 2023).
Like-named read-outs stand apart in the source and are kept apart here.

Experiments:
human hepatocytes = test: cell viability (MTS) after CYP induction treatment of human hepatocytes; conditions: after CYP1A2 induction treatment
Procedure: Cell Viability Assay: After the CYP induction treatment and enzyme activity assay, the cells were used for a cell viability assay. The viability of cells, expressed as the percentage of MTS absorbance relative to vehicle control, was measured as described above.

p53 in HCT116 = test: p53 (DO-1) Western blot; format: cell-based, human; conditions: HCT116 + RG7388 50 nM, 24 hr
Procedure: (§1) Protein samples were quantified using BCA.
(§2) Western blot: For each cell line, 10 μg of total protein were run on a 4-12% Bis-Tris precast gel. The gel was transferred to a nitrocellulose membrane. The membrane was blocked for 1 hour using the Odyssey TBS blocking solution. Membranes were incubated overnight in p53 (p53, DO-1) and actin (beta-actin) primary antibodies. The next day, blots were washed and incubated in either goat anti-mouse for p53 or goat-anti-rabbit for actin secondaries antibodies. Blots were then washed and imaged using an Odyssey CLx imaging system. Bands were quantified using Image Studio software and normalized to the actin control. The p53 or actin levels were then normalized to the NUGC3 band and graphed using Prism.
(§3) Since p53 protein pools are strongly autoregulated by degradation by the transcriptional target MDM2, pools of p53 accumulate to high levels in cells with mutant p53.

p53 in SJSA1 = test: p53 (DO-1) Western blot; format: cell-based, human; conditions: SJSA1 + RG7388 50 nM, 24 hr
Procedure: as §1, §2, §3

[1] = system: CYP enzymes in human liver microsomes; conditions: HLM, probe S-Mephenytoin 25 μM
Procedure: Pooled HLM were stored at −80° C. until use. […] The reaction was initiated by adding NADPH, followed by incubation at 37° C.
Corrected CLint=Raw CLint−Negative Control CLint; Δ CLint=CLHint(TA+NADPH−Inhibitor)−CLint (TA+NADPH+Inhibitor).

OATP1B1 = target: T1, OATP1B1 (Homo sapiens, UniProt Q9Y6L6); test: uptake transporter inhibition assessment, transfected HEK293; conditions: inhibitor 10 μM
T1 sequence (Q9Y6L6 1-691): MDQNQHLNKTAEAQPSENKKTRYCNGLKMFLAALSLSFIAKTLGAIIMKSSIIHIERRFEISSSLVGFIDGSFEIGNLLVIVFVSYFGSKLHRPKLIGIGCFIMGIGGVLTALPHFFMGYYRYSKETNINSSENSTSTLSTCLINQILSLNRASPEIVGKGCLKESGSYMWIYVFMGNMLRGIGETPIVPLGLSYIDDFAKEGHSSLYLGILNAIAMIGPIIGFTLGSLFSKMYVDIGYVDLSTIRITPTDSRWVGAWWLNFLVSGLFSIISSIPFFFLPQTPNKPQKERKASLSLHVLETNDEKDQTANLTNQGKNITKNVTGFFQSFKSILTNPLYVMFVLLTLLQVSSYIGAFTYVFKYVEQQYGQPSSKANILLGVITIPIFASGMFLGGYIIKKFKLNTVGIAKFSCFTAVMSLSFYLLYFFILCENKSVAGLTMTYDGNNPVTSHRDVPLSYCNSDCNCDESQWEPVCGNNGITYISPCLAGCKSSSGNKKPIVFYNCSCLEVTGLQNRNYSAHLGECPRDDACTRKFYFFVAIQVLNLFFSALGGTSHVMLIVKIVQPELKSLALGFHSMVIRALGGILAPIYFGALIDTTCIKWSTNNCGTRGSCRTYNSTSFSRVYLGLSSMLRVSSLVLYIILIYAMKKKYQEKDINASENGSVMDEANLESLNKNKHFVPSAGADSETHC

OATP1B3 = target: T2, OATP1B3 (Homo sapiens, UniProt Q9NPD5); test: as above; conditions: inhibitor 10 μM
T2 sequence (Q9NPD5 1-702): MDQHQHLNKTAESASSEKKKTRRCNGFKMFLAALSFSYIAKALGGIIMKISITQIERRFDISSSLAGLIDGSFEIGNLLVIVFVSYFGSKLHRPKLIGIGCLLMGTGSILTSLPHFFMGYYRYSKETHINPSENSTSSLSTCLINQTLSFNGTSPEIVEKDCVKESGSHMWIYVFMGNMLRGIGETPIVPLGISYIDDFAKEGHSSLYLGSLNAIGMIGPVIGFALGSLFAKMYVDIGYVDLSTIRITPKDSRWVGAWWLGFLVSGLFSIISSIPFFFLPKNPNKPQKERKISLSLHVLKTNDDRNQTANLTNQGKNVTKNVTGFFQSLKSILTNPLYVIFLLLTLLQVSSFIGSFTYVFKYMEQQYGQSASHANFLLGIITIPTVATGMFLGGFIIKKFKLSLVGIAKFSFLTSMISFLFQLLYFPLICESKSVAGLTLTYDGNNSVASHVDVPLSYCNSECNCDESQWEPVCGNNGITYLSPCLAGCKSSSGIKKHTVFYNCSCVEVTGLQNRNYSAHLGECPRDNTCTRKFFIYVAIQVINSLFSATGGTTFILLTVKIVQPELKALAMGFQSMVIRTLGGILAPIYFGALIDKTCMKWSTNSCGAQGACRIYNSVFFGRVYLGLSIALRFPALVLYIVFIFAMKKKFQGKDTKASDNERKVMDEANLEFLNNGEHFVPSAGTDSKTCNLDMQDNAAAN

[2] = +NADPH −Inhibitor, Maximum Metabolism
[3] = −NADPH −Inhibitor, Negative Control

COc1ccc2[nH]c([S+]([O-])Cc3ncc(C)c(OC)c3C)nc2c1 (stereo not drawn) [OME]
Formazan Absorbance (n = 3) Mean (human hepatocytes; Donor 1, 50 μM): 0.494 | Formazan Absorbance (n = 3) Mean (human hepatocytes; Donor 2, 50 μM): 0.800 | Formazan Absorbance (n = 3) Mean (human hepatocytes; Donor 3, 50 μM): 0.433

COc1cc(C(=O)O)ccc1NC(=O)[C@@H]1N[C@@H](CC(C)(C)C)[C@](C#N)(c2ccc(Cl)cc2F)[C@H]1c1cccc(Cl)c1F [RG7388]
DO1/Actin (p53 in HCT116): 0.065 | DO1 band density (p53 in HCT116): 1300 | normalized DO1/Actin (p53 in HCT116; normalized to NUGC3): 0.524 | DO1/Actin (p53 in SJSA1): 0.008 | DO1 band density (p53 in SJSA1): 94.5 | normalized DO1/Actin (p53 in SJSA1; normalized to NUGC3): 0.068

CC[C@@]1(c2ccccc2)NC(=O)N(C)C1=O [S-Mephenytoin]
Formation Rate (4′-OH Mephenytoin) [1, 2]: 39.8 pmol/min/mg protein | Measured Metabolite (4′-OH Mephenytoin) [1, 2]: 0.398 µM | Formation Rate (4′-OH Mephenytoin) [1, 3]: 0 pmol/min/mg protein | Measured Metabolite (4′-OH Mephenytoin) [1, 3]: 0 µM

CO[C@H]1/C=C/O[C@@]2(C)Oc3c(C)c([O-])c4c(O)c(cc(O)c4c3C2=O)NC(=O)/C(C)=C\C=C\[C@H](C)[C@H](O)[C@@H](C)[C@@H](O)[C@@H](C)[C@H](OC(C)=O)[C@@H]1C.[Na+] [Rifamycin SV]
Inhibition Potential Classification (OATP1B1): Positive (Percent inhibition≥50%: Positive) | Percent Inhibition (OATP1B1; probe Atorvastatin ([…])): 94.8 | Influx Rate AVG (OATP1B1; probe Atorvastatin ([…]), OATP1B1-transfected HEK cells): 1.12 pmol/minute/mg protein | Influx Rate AVG (OATP1B1; probe Atorvastatin ([…]), Vector Control cells): 0.769 pmol/minute/mg protein | Inhibition Potential Classification (OATP1B3): Positive (Percent inhibition≥50%: Positive) | Percent Inhibition (OATP1B3; probe atorvastatin (0.1 μM per TABLE 176)): 94.8 | Influx Rate AVG (OATP1B3; probe atorvastatin (0.1 μM per TABLE 176), OATP1B3-transfected HEK cells): 0.991 pmol/minute/mg protein | Influx Rate AVG (OATP1B3; probe atorvastatin (0.1 μM per TABLE 176), Vector Control cells): 0.769 pmol/minute/mg protein
